Source: US20250243176A1, “(S)-1-(1-ACRYLOYLPIPERIDIN-3-YL)-2-FLUORO-5,6,7,8,9,10-HEXAHYDROCYCLO HEPTA[B]INDOLE-4-CARBOXAMIDE, AND RELATED CRYSTALLINE FORMS, COMPOSITIONS, AND METHODS THEREOF” (GB005, Inc., priority 2021, published 2025)

Key:
[1] = molecular target: T1, TXK (Homo sapiens, UniProt P42681); experiment: Kinome scan, TXK; assay type: biochemical
T1 sequence (P42681 1-527): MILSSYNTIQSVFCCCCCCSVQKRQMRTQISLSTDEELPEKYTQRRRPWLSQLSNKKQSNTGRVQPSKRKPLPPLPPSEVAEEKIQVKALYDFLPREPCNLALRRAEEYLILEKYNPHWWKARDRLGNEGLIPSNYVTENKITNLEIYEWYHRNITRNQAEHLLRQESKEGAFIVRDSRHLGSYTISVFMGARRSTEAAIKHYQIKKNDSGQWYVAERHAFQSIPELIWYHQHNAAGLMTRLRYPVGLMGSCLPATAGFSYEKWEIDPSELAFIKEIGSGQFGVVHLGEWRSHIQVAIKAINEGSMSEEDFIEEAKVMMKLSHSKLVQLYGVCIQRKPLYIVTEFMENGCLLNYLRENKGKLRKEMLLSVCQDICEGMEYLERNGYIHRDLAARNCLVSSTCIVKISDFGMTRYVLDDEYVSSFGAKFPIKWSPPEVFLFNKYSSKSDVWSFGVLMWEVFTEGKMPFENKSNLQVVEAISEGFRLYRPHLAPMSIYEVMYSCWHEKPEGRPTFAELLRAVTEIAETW
Description: (§1) (S)-1-(1-acryloylpiperidin-3-yl)-2-fluoro-5,6,7,8,9,10-hexahydrocyclohepta[b]indole-4-carboxamide, hereinafter referred to as “Compound 1”, is an orally available, selective, potent inhibitor of Bruton's tyrosine kinase (BTK), thereby providing potential treatment options in BTK-driven diseases. The potency of Compound 1 for BTK inhibition is in the nM range in both cell-free enzymatic and whole blood functional assays.

[2] = tested on: BTK; experiment: BTK inactivation kinetics in peripheral and CNS tissue
Description: as §1

[3] = Phase 1 multiple ascending dose plasma pharmacokinetics; assay type: in vivo, human; settings: for Tmax / half-life / Cmax / AUC(0-inf): fed; for half-life / Cmax / AUC(0-inf): human, plasma, oral; for half-life: 15 mg; for AUC(0-inf): read-out: AUC0-inf or tau
Description: (§2) Part A is a randomized, double-blind, placebo-controlled, single- and -multiple-dose study with staggered dose escalation, administered in the fed state (standard moderate-fat meal). Part A consists of […] (up to 7 single-ascending dose [SAD] cohorts [Cohorts 1-6 & 14], and up to 3 multiple ascending dose [MAD] cohorts [Cohorts 7-9]). Subjects are randomized in a 3:1 ratio per cohort to receive either: Compound 1 Formulation A (N=6 for Cohorts 1-4 and N=9 for Cohorts 5-9 & 14); or placebo (PBO; N=2 for Cohorts 1-4 and N=3 for Cohorts 5-9 & 14).
• Cohorts 7 and 8: Day 1, all subjects begin once-daily multiple dose administration of Formulation A Compound 1 or placebo for 10 days. • Cohort 9: Day −1, all subjects receive placebo. • Day 1, all subjects begin once-daily multiple dose administration of • Compound 1 or placebo for 10 days.
Results: Preliminary pharmacokinetic results from 1 completed MAD cohort are presented, including 12 subjects receiving 15 mg once daily for 10 days randomized in a 3:1 ratio to receive Compound 1 or placebo) in a fed state (moderate-fat meal). […] Preliminary PK parameters are presented in Table 47 (all pharmacokinetic parameters of […] are reported as Mean (% coefficient of variation), except for Tmax and t1/2, which are reported as Median (Min, Max), and in FIG. 27 showing single and multiple dose plasma profiles (Mean±SD).

[4] = Phase 1 single ascending dose plasma pharmacokinetics; assay type: in vivo, human; settings: for AUC(0-inf) / Cmax / half-life / Tmax: both sexes, human, plasma, fed; for AUC(0-inf) / Cmax: mean; for dose proportionality of exposure (AUCinf): single dose
Method: The study investigates the administration of Compound 1 to healthy human subjects, to evaluate the safety, tolerability and PK of single and multiple-escalating doses. Additional objectives include assessing the effect of formulation on PK, the effect of food on PK, the effect of a CYP3A inhibitor on PK and the effect of Compound 1 on CYP3A activity. PK parameters including AUC, AUC, Cmax, and Tmax are determined. An additional exploratory objective evaluates pharmacodynamics, as the time-course of BTK inhibition. The study is conducted with up to 144 healthy male and female subjects, aged 18-55 years, with a body weight over 48 kg, BMI 18.5-30.0 kg/m^2, with no clinically significant abnormalities.
as §2
• Cohorts 1-4: Day 1, all subjects receive a single dose of Formulation A Compound 1 or placebo. • Cohorts 5, 6 & 14: Day −1, all subjects receive placebo (establish baseline ECG assessments). Day 1, subjects receive a single oral dose of Compound 1 or placebo.
Safety is assessed throughout the study and PK and PD are characterized using serial blood samples collected up to 48 hours post-dose for Compound 1 plasma concentrations, BTK target occupancy (TO) and target engagement (TE). Cerebrospinal fluid (CSF) samples are collected at 2 hours post-dose to characterize the relationship between Compound 1 plasma concentrations and CNS penetrance (CSF/Unbound plasma concentration). Compound 1 PK parameters (e.g., AUClast, AUCinf, Cmax, Tmax, t1/2) are estimated by standard noncompartmental methods.
Results: Preliminary pharmacokinetic results from […] are presented, including […] (7 receiving 5 mg, 8 receiving 15 mg, 8 receiving 45 mg, 8 receiving 5 mg+10 mg placebo, 12 receiving 100 mg and 12 receiving 200 mg: randomized in a 3:1 ratio to receive Compound 1 or placebo) in a fed state (moderate-fat meal). […] Preliminary PK parameters are presented in Table 45 (all pharmacokinetic parameters of Table 45 are reported as Mean (% coefficient of variation), except for Tmax and t/2, which are reported as Median (Min, Max)), and in FIG. 25 presenting the mean (SD) plasma concentration-time profiles of Compound 1.

[5] = both sexes, Cohort 7, 15 mg once daily, Day 1, mean
[6] = Cohort 7, 15 mg once daily, Day 10, mean
[7] = oral, 5 mg, Cohort 1, 5 mg single dose
[8] = oral, 5 mg, Cohort 4, 5 mg (+10 PBO) single dose
[9] = oral, 15 mg, Cohort 2, 15 mg single dose
[10] = oral, 45 mg, Cohort 3, 45 mg single dose
[11] = oral, 100 mg, Cohort 5, 100 mg single dose
[12] = oral, 200 mg, Cohort 6, 200 mg single dose

inhibition at 1 µM [1]: > 50% | accumulation upon once-daily dosing ([3]; 15 mg once daily for 10 days): Minimal to no accumulation | Tmax ([3]; Cohort 7, 15 mg once daily, Day 1, median): 1.5 br | Tmax ([3]; Cohort 7, 15 mg once daily, Day 10, median): 1.5 br | half-life ([3]; both sexes, MAD cohort, 15 mg once daily for 10 days, read-out: terminal half-life (converted)): ~3 h | Cmax [3, 5]: 85.8 ng/mL | AUC(0-inf) [3, 5]: 312 ng·h/mL | half-life ([3]; Cohort 7, 15 mg once daily, Day 1, median, read-out: T1/2 (converted)): 3.19 h | half-life ([3]; Cohort 7, 15 mg once daily, Day 10, median, read-out: T1/2 (converted)): 3.37 h | Cmax [3, 6]: 102 ng/mL | AUC(0-inf) [3, 6]: 353 ng·h/mL | AUC(0-inf) [4, 7]: 62.1 ng·h/mL | Cmax [4, 7]: 22.5 ng/mL | half-life ([4]; oral, 5 mg, Cohort 1, 5 mg single dose, median, read-out: T1/2 (converted)): 2.77 h | Tmax ([4]; oral, 5 mg, Cohort 1, 5 mg single dose, median, read-out: Tmax): 2 h | AUC(0-inf) [4, 8]: 121 ng·h/mL | Cmax [4, 8]: 36 ng/mL | half-life ([4]; oral, 5 mg, Cohort 4, 5 mg (+10 PBO) single dose, median, read-out: T1/2 (converted)): 3.33 h | Tmax ([4]; oral, 5 mg, Cohort 4, 5 mg (+10 PBO) single dose, median, read-out: Tmax): 1.75 h | AUC(0-inf) [4, 9]: 339 ng·h/mL | Cmax [4, 9]: 124 ng/mL | half-life ([4]; oral, 15 mg, Cohort 2, 15 mg single dose, median, read-out: T1/2 (converted)): 3.6 h | Tmax ([4]; oral, 15 mg, Cohort 2, 15 mg single dose, median, read-out: Tmax): 1 h | AUC(0-inf) [4, 10]: 859 ng·h/mL | Cmax [4, 10]: 283 ng/mL | half-life ([4]; oral, 45 mg, Cohort 3, 45 mg single dose, median, read-out: T1/2 (converted)): 3.4 h | Tmax ([4]; oral, 45 mg, Cohort 3, 45 mg single dose, median, read-out: Tmax): 1.5 h | AUC(0-inf) [4, 11]: 2290 ng·h/mL | Cmax [4, 11]: 555 ng/mL | half-life ([4]; oral, 100 mg, Cohort 5, 100 mg single dose, median, read-out: T1/2 (converted)): 4.29 h | Tmax ([4]; oral, 100 mg, Cohort 5, 100 mg single dose, median, read-out: Tmax): 1.5 h | AUC(0-inf) [4, 12]: 4480 ng·h/mL | Cmax [4, 12]: 814 ng/mL | half-life ([4]; oral, 200 mg, Cohort 6, 200 mg single dose, median, read-out: T1/2 (converted)): 4.5 h | Tmax ([4]; oral, 200 mg, Cohort 6, 200 mg single dose, median, read-out: Tmax): 3 h | Tmax ([4]; po, healthy subjects, single oral dose, SAD cohorts, read-out: mean plasma Tmax): 1 to 3 h | half-life ([4]; po, healthy subjects, single oral dose, SAD cohorts, read-out: terminal half-life): 3 to 4 h | dose proportionality of exposure (AUCinf) ([4]; from 5 to 15 mg): greater than dose-proportional | dose proportionality of exposure (AUCinf) ([4]; from 15 to 200 mg): near dose-proportional
Structure (SMILES): C=CC(=O)N1CCC[C@@H](c2c(F)cc(C(N)=O)c3[nH]c4c(c23)CCCCC4)C1 [Compound 1, (S)-1-(1-acryloylpiperidin-3-yl)-2-fluoro-5,6,7,8,9,10-hexahydrocyclohepta[b]indole-4-carboxamide]
BTK inactivation kinetics [2]: rapid
